# Test results: ChEMBL document CHEMBL5726506, “Heterocyclic kinase inhibitors” (2017)
# Test: Inhibition Assay: Class I PI3-Ks can be either purchased (p110α/p85α, p110β/p85α, p110δ/p85α from Upstate, and p110γ from Sigma) or expressed as previously described (Knight et al., 2004). IC50 values are measured using either a standard TLC assay for lipid kinase activity (described below) or a high-throughput membrane capture assay. Kinase reactions are performed by preparing a reaction mixture containing kinase, inhibitor (2% DMSO final concentration), buffer (25 mM HEPES, pH 7.4, 10 mM MgCl2), and freshly sonicated phosphatidylinositol (100 μg/ml). Reactions are initiated by the addition of ATP containing 10 μCi of γ-32P-ATP to a final concentration 10 or 100 μM and allowed to proceed for 5 minutes at room temperature. For TLC analysis, reactions are then terminated by the addition of 105 l 1N HCl followed by 160 μl CHCl3:MeOH (1:1). The biphasic mixture is vortexed, briefly centrifuged, and the organic phase is transferred to a new tube using a gel loading pipette tip precoated with CHCl3. This extract is spotted on TLC plates and developed for 3-4 hours in a 65:35 solution of n-propanol:1M acetic acid. The TLC plates are then dried, exposed to a phosphorimager screen (Storm, Amersham), and quantitated. For each compound, kinase activity is measured at 10-12 inhibitor concentrations representing two-fold dilutions from the highest concentration tested (typically, 200 μM).
row,IC50 [µM],Structure (SMILES)
1,> 1,CN1CCN(c2nc3ccccc3cc2Cn2nc(-c3cc(O)cc(F)c3)c3c(N)ncnc32)CC1
2,> 1,Nc1nc2ccc(-c3nn(Cc4cc5ccccc5nc4-c4ccccc4C(F)(F)F)c4ncnc(N)c34)cc2[nH]1
